The test system of one assay is HT-1197 cells. Put plainly: Cell-based assay: anti-proliferative activity, Cell Counting Kit-8, 72 hours (HT-1197, negative control without MELK expression). The conditions noted are these: Homo sapiens, HT1197, 72 h, HT1197 cells (negative control), 72 hours. Summed up: (§1)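 Proliferation read with Cell Counting Kit-8 after 72 hours of inhibitor treatment, from seeding of 2,000–3,000 cells/well. Lines: T47D, A549, BT-549; HT-1197, lacking MELK by western blot, served as negative control. IC50 derived.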
(In general: Tetrazolium assays rely on reduction of a dye to a coloured formazan, in cell work by metabolically active cells.)

For another assay, the target named is MELK (Homo sapiens, UniProt Q14680). Kind of assay: Kinase assay: MELK activity, phosphorylation of FITC-labeled histone H3 peptide measured by IMAP fluorescence polarization. The format is biochemical. To be noted: MELK kinase assay, IMAP fluorescence polarization, 50 micro-M ATP; read-out: IC50 (μM) (kinase assay). In outline: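 Fluorescence polarization was measured 0.5 h (room temperature) after quenching with threefold volume of progressive binding solution. Test compounds from 12.5 mM DMSO stocks were assayed at 1% DMSO.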

Another assay has as its system 22Rv1 cells. Kind of assay: Cell-based assay: anti-proliferative activity, Cell Counting Kit-8, 72 hours (22Rv1). The conditions noted are these: Homo sapiens.
A further assay concerns T47D cells. Kind of assay: Cell-based assay: anti-proliferative activity, Cell Counting Kit-8, 72 hours (T47D). To be noted: Homo sapiens, T47D, 72 h. In outline:
as §1

The next assay relates to A549 cells. Kind of assay: Cell-based assay: anti-proliferative activity, Cell Counting Kit-8, 72 hours (A549). The conditions noted are these: Homo sapiens, A549, 72 h, 72 hours. Summed up:
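A549 cells seeded in 96-well plates and exposed to candidate inhibitors for 72 hours. Growth measured with Cell Counting Kit-8; IC50 values calculated from the dose response.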

In the next assay the test system is DU4475 cells. Put plainly: Cell-based assay: anti-proliferative activity, Cell Counting Kit-8, 72 hours (DU4475). The conditions noted are these: Homo sapiens, DU-4475.

Structures are written as SMILES. Structures can show the parent of a compound that is named as a salt.

As usually defined, the IC50 is the concentration needed to halve the response being measured.

MELK, sequence (Q14680 whole entry, looked up): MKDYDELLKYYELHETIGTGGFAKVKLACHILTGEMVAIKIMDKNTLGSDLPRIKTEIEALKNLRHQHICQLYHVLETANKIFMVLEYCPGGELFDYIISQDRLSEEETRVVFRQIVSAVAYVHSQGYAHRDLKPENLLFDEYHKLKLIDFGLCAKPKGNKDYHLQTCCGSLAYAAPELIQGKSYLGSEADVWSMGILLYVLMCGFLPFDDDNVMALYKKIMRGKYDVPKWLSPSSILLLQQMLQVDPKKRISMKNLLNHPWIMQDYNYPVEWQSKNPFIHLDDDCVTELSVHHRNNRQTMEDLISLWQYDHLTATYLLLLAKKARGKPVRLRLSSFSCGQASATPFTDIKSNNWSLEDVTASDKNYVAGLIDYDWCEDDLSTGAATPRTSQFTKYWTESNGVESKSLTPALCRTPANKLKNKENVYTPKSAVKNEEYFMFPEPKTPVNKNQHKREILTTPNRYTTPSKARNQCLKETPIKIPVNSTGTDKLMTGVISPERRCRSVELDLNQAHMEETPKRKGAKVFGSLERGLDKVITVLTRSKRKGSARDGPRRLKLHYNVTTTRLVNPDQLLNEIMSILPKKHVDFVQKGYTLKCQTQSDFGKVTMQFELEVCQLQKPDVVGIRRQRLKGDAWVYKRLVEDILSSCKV

As to `CN(C)C[C@H]1CC[C@H](Nc2c(C(=O)C(C)(C)C)cnc3ccc(-c4cc(F)c(O)c(Cl)c4)cc23)CC1` [Example 919, 1-(6-(3-chloro-5-fluoro-4-hydroxy-phenyl)-4-((1R,4R)-4-((dimethylamino)methyl)cyclohexyl)amino)quinolin-3-yl)-2,2-dimethylpropan-1-one hydrochloride], the IC50 with HT-1197 cells came out at 6.4 µM; on MELK, 0.034 µM; in the assay with 22Rv1 cells, 3.5 µM; in the assay with T47D cells, 1.9 µM; in the assay on A549 cells, 4.3 µM; in the assay with DU4475 cells, 2.5 µM.

For `CC(=O)c1cnc2cc(F)c(-c3cc(F)c(O)c(Cl)c3)cc2c1N[C@H]1CC[C@H](CN(C)C)CC1` [Example 904, 1-(6-(3-chloro-5-fluoro-4-hydroxy-phenyl)-4-((1R,4R)-4-((dimethylamino)methyl)cyclohexyl)amino)-7-fluoro-quinolin-3-yl)ethanone hydrochloride], the concentration for half-maximal inhibition (IC50) with HT-1197 cells was 1.6 µM; on MELK, 0.017 µM; in the assay with 22Rv1 cells, 0.33 µM; in the assay on T47D cells, 0.51 µM; in the assay on A549 cells, 0.43 µM; in the assay on DU4475 cells it was 0.26 µM.

On to `CC(=O)c1cnc2ccc(-c3cc(F)c(O)c(Cl)c3)cc2c1N[C@H]1CC[C@H](NC(=O)CN(C)C)CC1` [Example 876], for which the half-inhibitory concentration (IC50) in the assay with HT-1197 cells was 1.5 µM; on MELK, 0.0088 µM; in the assay on 22Rv1 cells, 0.14 µM; in the assay on T47D cells, 0.033 µM; in the assay on A549 cells, 0.16 µM; with DU4475 cells, 0.092 µM.

For `CC(=O)c1cnc2ccc(-c3cc(Cl)c(O)c(Cl)c3)cc2c1N[C@H]1CC[C@H](C(=O)NCCN(C)C)CC1` [Example 892, (1r,4r)-4-((3-acetyl-6-(3,5-dichloro-4-hydroxyphenyl)quinolin-4-yl)amino)-N-(2-(dimethylamino)ethyl)cyclo-hexanecarboxamide hydrochloride], the half-maximal inhibitory concentration (IC50) with HT-1197 cells is 100 µM; at MELK it was 0.0023 µM; in the assay on 22Rv1 cells, 1.1 µM; with T47D cells, 0.59 µM; with A549 cells, 6.3 µM; with DU4475 cells, 0.4 µM.

As for `CC(=O)c1cnc2ccc(-c3cc(Cl)c(O)c(Cl)c3)cc2c1N[C@H]1CC[C@H](NC(=O)C(N)C(C)C)CC1` (stereo partly drawn) [Example 915], the half-inhibitory concentration (IC50) in the assay with HT-1197 cells was found to be 3.5 µM; at MELK, 0.0031 µM; in the assay with 22Rv1 cells, 0.099 µM; with T47D cells, 0.053 µM; in the assay on A549 cells, 0.29 µM; in the assay with DU4475 cells, 0.062 µM.

Regarding `CC(=O)c1cnc2ccc(-c3cc(Cl)c(O)c(Cl)c3)cc2c1N[C@H]1CC[C@H](C(=O)N2CCN(C)CC2)CC1` [Example 898, 1-(6-(3,5-dichloro-4-hydroxyphenyl)-4-((1R,4R)-4-(4-methylpiperazine-1-carbonyl)cyclohexyl)amino) quinolin-3-yl)ethanone hydrochloride], the 50% inhibitory concentration (IC50) was 3 µM in the assay on HT-1197 cells; 0.0044 µM at MELK; 0.78 µM in the assay on 22Rv1 cells; 0.44 µM in the assay on T47D cells; 0.87 µM in the assay on A549 cells; 0.96 µM in the assay with DU4475 cells.

`O=C(c1cnc2ccc(-c3cc(F)c(O)c(Cl)c3)cc2c1Nc1cncc(CCN2CCCC2)c1)C1CC1` [Example 882, (6-(3-chloro-5-fluoro-4-hydroxyphenyl)-4-((5-(2-(pyrrolidin-1-yl)ethyl)pyridin-3-yl)amino)quinolin-3-yl)(cyclopropyl)methanone]: the concentration for half-maximal inhibition (IC50) was found to be 100 µM in the assay on HT-1197 cells; 0.019 µM on MELK; 3.1 µM with 22Rv1 cells; 100 µM in the assay with T47D cells; 0.27 µM in the assay with A549 cells; 0.15 µM in the assay on DU4475 cells.

In the case of `CN1CCC(n2cc(Nc3c(C(=O)C(C)(C)C)cnc4ccc(-c5cc(Cl)c(O)c(Cl)c5)cc34)cn2)CC1` [Example 931, 1-(6-(3,5-dichloro-4-hydroxyphenyl)-4-((1-(1-methylpiperidin-4-yl)-1H-pyrazol-4-yl)amino)quinolin-3-yl)-2,2-dimethylpropan-1-one hydrochloride], the IC50 amounted to 100 µM in the assay on HT-1197 cells; 0.0062 µM on MELK; 2.1 µM in the assay with 22Rv1 cells; 1.4 µM in the assay on T47D cells; 1.8 µM in the assay on A549 cells; 1.5 µM in the assay on DU4475 cells.

As to `CC(=O)c1cnc2ccc(-c3ccc(O)cc3)cc2c1N[C@H]1CC[C@H](CN(C)C)CC1` [Example 935, 1-(4-(1R,4R)-4-((dimethylamino)methyl)cyclohexylamino)-6-(4-hydroxyphenyl)quinolin-3-yl) ethanone dihydrochloride], the IC50 was found to be 4.3 µM in the assay on HT-1197 cells; 0.08 µM on MELK; 0.53 µM in the assay on 22Rv1 cells; 1.6 µM in the assay on T47D cells; 0.86 µM in the assay with A549 cells; 1.5 µM in the assay with DU4475 cells.

Turning to `CCN(CC)CCO[C@H]1CC[C@H](Nc2c(C(C)=O)cnc3ccc(-c4cc(F)c(O)c(Cl)c4)cc23)CC1` [Example 869, 1-(6-(3-chloro-5-fluoro-4-hydroxyphenyl)-4-((1R,4R)-4-(2-(diethylamino)ethoxy)cyclohexyl)amino)quinolin-3-yl)ethanone hydrochloride], the IC50 in the assay with HT-1197 cells came out at 0.7 µM; at MELK, 0.01 µM; with 22Rv1 cells, 0.32 µM; in the assay with T47D cells, 0.084 µM; in the assay on A549 cells, 0.23 µM; with DU4475 cells, 0.26 µM.

For `COc1cc(-c2ccc3ncc(C(=O)C4CCCC4)c(Nc4cccc(CCN5CCCC5)c4)c3c2)cc(Cl)c1O` [Example 924, (6-(3-chloro-4-hydroxy-5-methoxy-phenyl)-4-((3-(2-(pyrrolidin-1-yl)ethyl)phenyl)amino)quinolin-3-yl) (cyclopentyl)methanone hydrochloride], the concentration for half-maximal inhibition (IC50) was 3.3 µM in the assay with HT-1197 cells; 0.018 µM on MELK; 3 µM in the assay on 22Rv1 cells; 3.2 µM in the assay with T47D cells; 3.7 µM in the assay with A549 cells; 1.8 µM in the assay on DU4475 cells.

With `CC(=O)c1cnc2ccc(-c3cc(Cl)c(O)c(Cl)c3)cc2c1N[C@H]1CC[C@H](NC(=O)CN(C)C)CC1` [Example 877, N-(1R,4R)-4-((3-acetyl-6-(3,5-dichloro-4-hydroxyphenyl)quinolin-4-yl)amino)cyclohexyl)-2-(dimethylamino)acetamide hydrochloride], the IC50 with HT-1197 cells is 2 µM; on MELK it was 0.0027 µM; in the assay on 22Rv1 cells it was 0.18 µM; in the assay with T47D cells, 0.11 µM; with A549 cells, 0.2 µM; in the assay on DU4475 cells, 0.11 µM.

On to `CC(=O)c1cnc2ccc(-c3cc(Cl)c(O)c(Cl)c3)cc2c1N[C@H]1CC[C@H](NC(=O)[C@@H]2CCCN2)CC1` [Example 920, (S)—N-((1R,4S)-4-(3-acetyl-6-(3,5-dichloro-4-hydroxyphenyl)quinolin-4-ylamino)cyclohexyl)pyrrolidine-2-carboxamide], for which the 50% inhibitory concentration (IC50) in the assay on HT-1197 cells worked out at 6.5 µM; on MELK, 0.0019 µM; in the assay with 22Rv1 cells it was 0.34 µM; in the assay with T47D cells, 0.1 µM; in the assay on A549 cells, 0.86 µM; in the assay on DU4475 cells, 0.073 µM.

For `CC(=O)c1cnc2ccc(-c3cc(Cl)c(O)c(Cl)c3)cc2c1N[C@H]1CC[C@H](NC(=O)C2CCCN2C)CC1` (stereo partly drawn) [Example 875, N-(1R,4R)-4-((3-acetyl-6-(3,5-dichloro-4-hydroxyphenyl)quinolin-4-yl)amino)cyclohexyl)-1-methylpyrrolidine-2-carboxamide hydrochloride], the IC50 in the assay on HT-1197 cells worked out at 4.4 µM; on MELK, 0.0035 µM; in the assay on 22Rv1 cells, 0.29 µM; in the assay with T47D cells, 0.14 µM; with A549 cells, 0.24 µM; with DU4475 cells, 0.21 µM.

`CC(=O)c1cnc2ccc(-c3cc(Cl)c(O)c(Cl)c3)cc2c1N[C@H]1CC[C@H](NC(=O)[C@H](C)N)CC1` [Example 886]: the IC50 with HT-1197 cells was 11 µM; at MELK, 0.00066 µM; with 22Rv1 cells it was 0.088 µM; with T47D cells it was 0.045 µM; in the assay with A549 cells, 0.64 µM; in the assay on DU4475 cells it was 0.016 µM.

Consider `CC(=O)c1cnc2ccc(-c3cc(F)c(O)c(Cl)c3)cc2c1N[C@H]1CC[C@H](NC(=O)[C@@H]2CCCN2)CC1` [Example 921, (S)—N-((1R,4S)-4-(3-acetyl-6-(3-chloro-5-fluoro-4-hydroxyphenyl)quinolin-4-ylamino)cyclohexyl)pyrrolidine-2-carboxamide], for which the concentration for half-maximal inhibition (IC50) in the assay with HT-1197 cells came to 10 µM; at MELK, 0.012 µM; with 22Rv1 cells, 0.21 µM; in the assay on T47D cells, 0.048 µM; in the assay on A549 cells, 1.2 µM; in the assay on DU4475 cells it was 0.068 µM.

Regarding `COc1cc(-c2ccc3ncc(C(=O)C4CCCC4)c(N[C@H]4CC[C@H](CN(C)C)CC4)c3c2)cc(Cl)c1O` [Example 916, (6-(3-chloro-4-hydroxy-5-methoxy-phenyl)-4-((1R,4R)-4-((dimethyl-amino)methyl)cyclohexyl)amino) quinolin-3-yl)(cyclopentyl) methanone hydrochloride], the half-maximal inhibitory concentration (IC50) in the assay on HT-1197 cells worked out at 3.1 µM; at MELK it was 0.0048 µM; with 22Rv1 cells, 1.5 µM; with T47D cells, 1.2 µM; in the assay with A549 cells, 1.1 µM; in the assay on DU4475 cells, 1 µM.

Source of the values: US9120749B2, “Quinoline derivatives and MELK inhibitors containing the same” (ONCOTHERAPY SCIENCE, INC., priority 2010, dated 2015).
